Tested on: SARS-CoV-2
Assay type: cell-based
Settings: 200 μM, Vero E6, CCK8

Row | Structure (SMILES) | protection on cells from death caused by viral infection [%]
1 | CCN1Cc2cc(OC)c(OC)cc2-c2cccc(N)c21 [Compound 12, 5-Ethyl-8,9-dimethoxy-5,6-dihydrophenanthridin-4-amine] | ~100
2 | CCN1Cc2cc(OC)c(OC)cc2-c2cccc(NC(=O)C(F)(F)F)c21 [Compound 16, N-(5-Ethyl-8,9-dimethoxy-5,6-dihydrophenanthridin-4-yl)-2,2,2-trifluoroacetamide] | ~100

From publication PMC8559303 (European Journal of Medicinal Chemistry, 2021)
